{
  "source": "patent US7807641B2",
  "about": "“Methods and reagents for treating glucose metabolic disorders” (Curis, Inc., priority 1999, dated 2010)",
  "key": {"Fetal rat islets": {"tested_on": "Fetal rat islets", "test": "Insulin content of cultured fetal rat islets", "format": "cell-based", "conditions": "200μ/ml PYY for 5 days, actinomycin D at 0.1, 0.2, 0.5 and 1.0 μg/ml for the last 16 hours", "from_the_text": "(§1) Fetal rat islets were obtained as follows. […] Fetuses were removed from the uterus."}, "e21 islets": {"tested_on": "e21 islets", "test": "IBMX stimulated calcium influx in e21 islets", "format": "cell-based, rat", "conditions": "1 μM IBMX in 3 mM (low) glucose; non-glucose responsive e21 islets", "description": "as §1\nE21 islet were isolated and cultured according to Example 1. Islets were then treated with 17 mM glucose or 1 μM IBMX in 3 mM (low) glucose (FIG. 2)."}, "[1]": {"tested_on": "small ducts from rat pancreas", "conditions": "cited from earlier work"}, "E21 fetal islets": {"tested_on": "E21 fetal islets", "test": "Glucose-stimulated insulin release (static insulin release, RIA) in cultured e21 fetal rat islets", "conditions": "e21 fetal islets cultured for 5 days with 200 ng/ml peptide"}, "[2]": {"conditions": "confluent duct monolayer, single treatment preferentially 48 hr"}},
  "note": "Where two headings read alike, the source gives them in different places. Numbered stars: 1 amine (or outer) side, 2 acyl side, 3 side chain; on linkers, the order of the positions; unused ones are H or OH. Bridge positions count the residues as written; N and C are the ends. Square brackets hold non-standard residues; d marks the D form. Ends that are not written are not given here. Peptide text beside a SMILES is read from it. I, II: the chains in the order shown. Actinocin(9to1) = Cc1c2oc3c(C)ccc(C(=O)[*:1])c3nc-2c(C(=O)[*:2])c(N)c1=O; NMeV = CN[C@H](C(=O)O)C(C)C; Sar = CNCC(=O)O",
  "data": [
    {"compound": "Cc1c2oc3c(C)ccc(C(=O)N[C@@H]4C(=O)N[C@H](C(C)C)C(=O)N5CCC[C@H]5C(=O)N(C)CC(=O)N(C)[C@@H](C(C)C)C(=O)O[C@@H]4C)c3nc-2c(C(=O)N[C@@H]2C(=O)N[C@H](C(C)C)C(=O)N3CCC[C@H]3C(=O)N(C)CC(=O)N(C)[C@@H](C(C)C)C(=O)O[C@@H]2C)c(N)c1=O", "note": "[Actinomycin D, actinomycin D] (I: T[dV]P[Sar][NMeV] / II: T[dV]P[Sar][NMeV]; ester I:1-I:C, II:1-II:C; linker I:N-II:N via Actinocin(9to1))", "values": [
      {"measurement": "overall islet insulin content", "setting": "Fetal rat islets", "result": "did not significantly decrease overall islet insulin content"}
    ]},
    {"compound": "CC(C)Cn1c(=O)n(C)c(=O)c2[nH]cnc21", "note": "[IBMX]", "values": [
      {"measurement": "intracellular calcium influx", "setting": "e21 islets", "result": "induced a calcium influx"}
    ]},
    {"compound": "CCCC(=O)[O-].[Na+]", "note": "[Na-Butyrate]", "values": [
      {"measurement": "induction of differentiation", "setting": "[1]; [2]", "result": "found to induce differentiation"}
    ]},
    {"compound": "CCCC(=O)Nc1ncnc2c1ncn2[C@@H]1O[C@@H]2COP(=O)(O)O[C@H]2[C@H]1OC(=O)CCC", "note": "[dibutyrl cAMP]", "values": [
      {"measurement": "induction of differentiation", "setting": "[1]; [2]", "result": "found to induce differentiation"}
    ]},
    {"compound": "PPP: related peptide sharing approximately 70% amino acid homology with PYY; probably pancreatic polypeptide (PP) (APLEPVYPGDNATPEQMAQYAADLRRYINMLTRPRY; ends and bridges not checked; UniProt P01298 30-65, looked up)", "values": [
      {"measurement": "gain of glucose responsivity (glucose-stimulated insulin release)", "setting": "E21 fetal islets", "result": "did not stimulate gain of glucose responsivity"}
    ]},
    {"compound": "cholera toxin", "values": [
      {"measurement": "induction of differentiation", "setting": "[1]", "result": "found to induce differentiation"}
    ]},
    {"compound": "neuropeptide Y [NPY]", "values": [
      {"measurement": "gain of glucose responsivity (glucose-stimulated insulin release)", "setting": "E21 fetal islets", "result": "did not stimulate gain of glucose responsivity"}
    ]}
  ]
}
